Experimental data published in patent US20110144128A1, “Heterocyclic Carboxamide Compounds as Steroid Nuclear Receptors Ligands” (EXELIXIS, INC., priority 2005, published 2011).

Assays:
[1] = target: T1, human MR (Homo sapiens, UniProt P08235); experiment: GAL4-MR cell based assay, antagonist format
T1 construct: expressed in transfected cells; host or cells: CV-1 (African Green Monkey Kidney Cells), transiently transfected with pCMX-GAL4-MR
T1 sequence (P08235 671-984): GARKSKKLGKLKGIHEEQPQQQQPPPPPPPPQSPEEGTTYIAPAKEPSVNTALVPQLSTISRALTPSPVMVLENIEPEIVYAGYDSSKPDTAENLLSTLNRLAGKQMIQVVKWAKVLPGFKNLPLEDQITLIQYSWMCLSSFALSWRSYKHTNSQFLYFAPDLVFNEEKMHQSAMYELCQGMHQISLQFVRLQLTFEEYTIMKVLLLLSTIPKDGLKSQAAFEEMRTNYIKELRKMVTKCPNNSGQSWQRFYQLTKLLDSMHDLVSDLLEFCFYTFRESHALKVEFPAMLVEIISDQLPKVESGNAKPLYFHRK
Experimental: Compound activity was determined in a cell-based assay using a GAL4-MR chimera to identify compounds with the ability to modulate MR activity.
The pCMX-GAL4-MR expression plasmid was constructed by cloning nucleotides encoding amino acids 671 to 984 of human MR (see GenBank sequence AAA59571) into the vector pCMX-GAL4 (Perlmann et al., 1993,Genes & Development 7:1411-1422) comprising nucleotides encoding for amino acids 1-147 of the GAL4 DNA binding domain.
The TK-MH 100x4-Luc (GAL4UAS-TK-Luciferase) reporter construct was constructed by insertion of four copies of the Gal4 UAS (Kang et al. 1993, J. Biol. Chem. 268:9629-9635) into the Hind III site of TK-Luc. The parental plasmid, TK-Luc, was prepared by insertion of the Herpes simplex virus thymidine kinase gene promoter (−105 to +51) obtained from the plasmid pBLCAT2 by digestion with HindIII and XhoI (described in Luckow et al., 1987, Nuc. Acid. Res. 15:5490) into the plasmid MMTV-LUC described by Hollenberg and Evans, 1988, Cell 55:899-906) after removal of MMTV-LTR promoter sequence from MMTV-LUC via digestion with HindIII and XhoI. Correct cloning was confirmed by restriction digestion and/or sequencing.
Assays were performed using CV-1 (African Green Monkey Kidney Cells) (ATCC) cells grown in T175 flasks at a density of 3×10^6 cells/flask in DMEM with 5% FBS. Cells were transfected one day after plating at 70-80 percent confluency with a DNA mixture containing (per T175 flask) 9 […] pCMX-GAL4-MR, 9 μg TK-MH100x4-Luc, and 2 μg pCMX β-Gal using the transfection reagent FuGENE6 (Roche Molecular Biochemicals, Indianapolis, Ind.) following recommended protocols and instructions provided by the manufacturer, and incubated with transfection reagents for 5 hours at 37° C.
Transfected cells were trypsinized, resuspended in media, and 45 μL was added to assay plates at a density of approximately 5,000 cells/well using a MultiDrop dispenser (MTX Lab Systems, Inc., VA). The assay plates containing both compounds and screening cells were incubated for approximately 20 hours at 37° C. and 5% CO2 in a tissue culture incubator.
After incubation of the transfected cells with compounds, Lysis buffer (1% Triton X-100, 10% Glycerol, 5 mM DTT, 1 mM EGTA, 25 mM Tricine, pH 7.8) and Luciferin assay buffer (0.73 mM ATP, 22.3 mM Tricine, 0.11 mM EDTA, 33.3 mM DTT, 0.2M MgSO4, 11 mM Luciferin, 6.1 mM Coenzyme A, 0.01 mM HEPES, pH 7.8) were prepared. Media was removed from the plates and lysis buffer and luciferin assay buffer mixed in a 1:1 ratio and then 30 μl of the mixture was added to each well using a Multidrop dispenser. Plates were read on the Northstar (Applied Biosystems, Foster City, Calif.) and data was analyzed using ActivityBase (ID Business Solutions, Ltd., Guildford, Surrey, UK). If required, luciferase values may be normalized for transfection efficiency by measuring β-galactosidase activity based on expression from the pCMX-βGal expression plasmid as described previously (Willy et al., 1995, Gene & Development, 9:1033-1045).
(§1) The following table provides in vitro MR activity data of representative compounds described in the Examples. […] The “+” mark under the selectivity column is given to those compounds having greater than ten-fold antagonist activity against MR compared to at least one nuclear receptor selected from AR, ERα, GR and PR, as determined from the GAL4-AR, GAL4-ERα, GAL4-GR and GAL4-PR assays. The “++” mark under the selectivity column identifies those compounds having greater than ten-fold antagonist activity against MR compared to the four nuclear receptors AR, ERα, GR and PR, as determined from the GAL4-AR, GAL4-ERα, GAL4-GR and GAL4-PR assays.

[2] = tested on: AR, ERα, GR and PR; experiment: selectivity assays GAL4-AR, GAL4-ERα, GAL4-GR and GAL4-PR, antagonist mode; assay type: cell-based; settings: antagonist activity against MR compared to AR
Experimental: In certain cases, compounds were also evaluated for activity in selectivity assays with other steroid hormone receptor members, including AR, ER, GR and PR, as well as GAL4 alone. Steroid receptors used for selectivity assays were essentially generated as described above for pCMX-GAL4-MR, and comprised the LBD and a portion of the hinge region of the nuclear receptor of interest cloned in frame into the vector pCMX-GAL4 (Perlmann et al., 1993,Genes & Development 7:1411-1422) as described above.
Assays run in antagonist mode included agonists as follows: AR; 25 nM dihydrotestosterone (DHT), ER; 4.5 nM estradiol, GR; 20 nM dexamethasone, and PR; 2 nM medroxyprogesterone (MPA), respectively. Assays run in agonist mode contained no supplemental compounds.
as §1

Structure (SMILES) | IC50 [1] | Selectivity [2]
Cc1nc(C(=O)Nc2ccc(S(C)(=O)=O)cc2)n(C)c1-c1ccccc1Oc1ccccc1 [1,4-dimethyl-5-(2-phenoxy-phenyl)-1H-imidazole-2-carboxylic acid (4-methanesulfonyl-phenyl)-amide] | < 0.5 µM | ++ (greater than ten-fold antagonist activity against MR compared to the four nuclear receptors AR, ERα, GR and PR)
Cc1ccc(NC(=O)c2cc(C)n(-c3ccccc3C(F)(F)F)c2C)cc1Cl [2,5-Dimethyl-1-(2-trifluoromethyl-phenyl)-1H-pyrrole-3-carboxylic acid (3-chloro-4-methyl-phenyl)-amide] | < 0.5 µM | 
Cc1cc(C(=O)Nc2ccc(S(C)(=O)=O)cc2)c(C)n1-c1ccc(NC(=O)c2ccc(C(F)(F)F)cc2C(F)(F)F)cc1C(F)(F)F [1-[4-(2,4-bis-trifluoromethyl-benzoylamino)-2-trifluoromethyl-phenyl]-2,5-dimethyl-1H-pyrrole-3-carboxylic acid (4-methanesulfonyl-phenyl)-amide] | 1 to 5 µM | + (greater than ten-fold antagonist activity against MR compared to at least one nuclear receptor selected from AR, ERα, GR and PR)
Cc1cc(C(=O)Nc2ccc(S(C)(=O)=O)cc2)c(C)n1-c1ccccc1C(=O)Nc1cccc([N+](=O)[O-])c1 [2,5-Dimethyl-1-[2-(3-nitro-phenylcarbamoyl)-phenyl]-1H-pyrrole-3-carboxylic acid (4-methanesulfonyl-phenyl)-amide] | 0.5 to 1 µM | + (greater than ten-fold antagonist activity against MR compared to at least one nuclear receptor selected from AR, ERα, GR and PR)
Cc1cc(C(=O)Nc2ccc(S(C)(=O)=O)cc2)c(C)n1-c1ccccc1/C=C/C(C)(C)C [1-[2-((E)-3,3-Dimethyl-but-1-enyl)-phenyl]-2,5-dimethyl-1H-pyrrole-3-carboxylic acid (4-methanesulfonyl-phenyl)-amide] | < 0.5 µM | ++ (greater than ten-fold antagonist activity against MR compared to the four nuclear receptors AR, ERα, GR and PR)
Cc1ccc(NC(=O)c2cc(C)n(-c3ccccc3C(F)(F)F)c2C)cc1F [2,5-Dimethyl-1-(2-trifluoromethyl-phenyl)-1H-pyrrole-3-carboxylic acid (3-fluoro-4-methyl-phenyl)-amide] | 0.5 to 1 µM | 
Cc1cc(C(=O)Nc2ccc3ccccc3c2)c(C)n1-c1ccccc1C(F)(F)F [2,5-Dimethyl-1-(2-trifluoromethyl-phenyl)-1H-pyrrole-3-carboxylic acid naphthalen-2-ylamide] | < 0.5 µM | 
Cc1cnc(NC(=O)c2cc(C)n(-c3ccccc3C(F)(F)F)c2C)s1 [2,5-Dimethyl-1-(2-trifluoromethyl-phenyl)-1H-pyrrole-3-carboxylic acid (5-methyl-thiazol-2-yl)-amide] | < 0.5 µM | 

The next lines start with results.

IC50 [1] | Structure (SMILES) | Selectivity [2]
0.5 to 1 µM | Cc1cc(C(=O)Nc2ccc(NS(C)(=O)=O)cc2)c(C)n1-c1ccccc1C(F)(F)F [2,5-dimethyl-1-(2-trifluoromethyl-phenyl)-1H-pyrrole-3-carboxylic acid (4-methanesulfonylamino-phenyl)-amide] | + (greater than ten-fold antagonist activity against MR compared to at least one nuclear receptor selected from AR, ERα, GR and PR)
< 0.5 µM | Cc1[nH]c(C(=O)Nc2ccc(S(C)(=O)=O)cc2)c(C)c1-c1ccccc1C(F)(F)F [3,5-dimethyl-4-(2-trifluoromethyl-phenyl)-1H-pyrrole-2-carboxylic acid (4-methanesulfonyl-phenyl)-amide] | ++ (greater than ten-fold antagonist activity against MR compared to the four nuclear receptors AR, ERα, GR and PR)
< 0.5 µM | CCc1nc(C(=O)Nc2ccc(S(C)(=O)=O)cc2)c(C)n1-c1ccccc1C(F)(F)F [2-ethyl-5-methyl-1-(2-trifluoromethyl-phenyl)-1H-imidazole-4-carboxylic acid (4-methanesulfonyl-phenyl)-amide] | ++ (greater than ten-fold antagonist activity against MR compared to the four nuclear receptors AR, ERα, GR and PR)
< 0.5 µM | COc1cc(NC(=O)c2cc(C)n(-c3ccccc3C(F)(F)F)c2C)ccc1S(N)(=O)=O [2,5-dimethyl-1-(2-trifluoromethyl-phenyl)-1H-pyrrole-3-carboxylic acid (3-methoxy-4-sulfamoyl-phenyl)-amide] | ++ (greater than ten-fold antagonist activity against MR compared to the four nuclear receptors AR, ERα, GR and PR)
0.5 to 1 µM | Cc1cc(C(=O)Nc2ccc(S(=O)(=O)C(C)C)cc2)c(C)n1-c1ccccc1C(F)(F)F [2,5-dimethyl-1-(2-trifluoromethyl-phenyl)-1H-pyrrole-3-carboxylic acid [4-(propane-2-sulfonyl)-phenyl]-amide] | + (greater than ten-fold antagonist activity against MR compared to at least one nuclear receptor selected from AR, ERα, GR and PR)
1 to 5 µM | Cc1c(C(=O)Nc2ccc(S(C)(=O)=O)cc2)ncn1-c1ccccc1C(F)(F)F [5-methyl-1-(2-trifluoromethyl-phenyl)-1H-imidazole-4-carboxylic acid (4-methanesulfonyl-phenyl)-amide] | 
< 0.5 µM | Cc1cc(C(=O)Nc2ccc(S(C)(=O)=O)cc2)c(C)n1-c1cccc2ccccc12 [2,5-Dimethyl-1-naphthalen-1-yl-1H-pyrrole-3-carboxylic acid (4-methanesulfonyl-phenyl)-amide] | ++ (greater than ten-fold antagonist activity against MR compared to the four nuclear receptors AR, ERα, GR and PR)
1 to 5 µM | CCNS(=O)(=O)c1ccc(NC(=O)c2cc(C)n(-c3ccccc3C(F)(F)F)c2C)cc1 [2,5-dimethyl-1-[2-(trifluoromethyl)phenyl]-1H-pyrrole-3-carboxylic acid (4-ethylsulfamoyl-phenyl)-amide] | + (greater than ten-fold antagonist activity against MR compared to at least one nuclear receptor selected from AR, ERα, GR and PR)
0.5 to 1 µM | Cc1sc(C(=O)Nc2ccc(S(C)(=O)=O)cc2)c(C)c1-c1ccccc1C(F)(F)F [3,5-dimethyl-4-(2-trifluoromethyl-phenyl)-thiophene-2-carboxylic acid (4-methanesulfonyl-phenyl)-amide] | 
